5 compounds from US4552868A, “14-Amino steroid derivatives, a process for the preparation thereof and method of use thereof” (Etablissements Nativelle S.A., priority 1982, dated 1985) can be followed below.

Data set [1] relates to isolated guinea pig auricle. Put plainly: Positive inotropic activity: increase in force of contraction on the isolated guinea pig auricle. The following applies: Cavia porcellus, read-out: Range of contractions in relation to the control values; for activation at 2 µM: 2 × 10^-6 Moles/l; for activation at 0.2 µM: 2 × 10^-7 Moles/l; for activation at 6 µM: 6 × 10^-6 Moles/l; for activation at 10 µM: 10^-5 Moles/l; for activation at 1 µM: 10^-6 Moles/l. The text has this: Inotropic activity has been verified on the isolated guinea pig auricle under normal experimental conditions, by recording the range of contractions for various doses administered in relation to control values.
Range of contractions in relation to the control values

A further data set addresses membraneous ATPase. Nature of the data set: Inhibition of membraneous ATPase. Format: biochemical. The following applies: read-out: ED50 (dose causing 50% inhibition of membraneous ATPase). The text has this:
The results obtained using the derivatives of the invention described in Examples 2, 6 and 7 and ouabain and digoxin are shown in Table 2 below.
In Table 2, the ED50 value is the dose causing 50% inhibition of membraneous ATPase.

The test system of another data set is cardiac contractility. Put plainly: Toxicity versus increase in cardiac contractility in the anesthetized dog. It is filed as in vivo. The text has this:
Similarly, the toxicity of the derivatives of the invention is reversible, that is, stopping their administration is sufficient to make problems observed using an electrocardiogram disappear.

Structures are written as SMILES.

As to `C[C@@H]1O[C@@H](O[C@H]2CC[C@@]3(C)[C@H](CC[C@@H]4[C@@H]3CC[C@]3(C)[C@@H]([C@@H](C)O)CC[C@]43N)C2)[C@H](O)[C@H](O)[C@H]1O` [Example 7, 3-O-(α-L-rhamnopyranosyl) 14β-amino 5β-pregnane 3β,20β-diol], in data set [1], the activation at 2 µM stood at 178%, the activation at 0.2 µM came out at 50%, the activation at 6 µM turned out to be 233% and the activation at 10 µM was found to be 206%. Besides, the activation at 1 µM in data set [1] is 97%. Moreover, the IC50 on membraneous ATPase was 0.07 nM.
Take `C[C@@H]1O[C@@H](O[C@H]2CC[C@@]3(C)[C@H](CC[C@@H]4[C@@H]3CC[C@]3(C)[C@@H](CO)CC[C@]43N)C2)[C@H](O)[C@H](O)[C@H]1O` [Example 2, 3-O-(α-L-rhamnopyranosyl) 14β-amino 21-nor 5β-pregnane 3β,20-diol]: the IC50 on membraneous ATPase is 0.13 nM.
As to `C[C@@H]1O[C@@H](O[C@H]2C[C@@H](O)[C@]3(CO)[C@H]4[C@H](O)C[C@]5(C)[C@@H](C6=CC(=O)OC6)CC[C@]5(O)[C@@H]4CC[C@]3(O)C2)[C@H](O)[C@H](O)[C@H]1O` [ouabain, reference compound], at membraneous ATPase, the IC50 stood at 3.6 nM.
`C[C@H](O)[C@H]1CC[C@]2(N)[C@@H]3CC[C@@H]4C[C@@H](O[C@@H]5O[C@@H](C)[C@H](O)[C@@H](O)[C@H]5O)CC[C@]4(C)[C@H]3CC[C@]12C` [Example 6, 3-O-(α-L-rhamnopyranosyl) 14β-amino 5β-pregnane 3β,20α-diol]: the “increase in cardiac contractility without any signs of toxicity” value in the data set with cardiac contractility amounted to 150%. For the same compound, the signs of toxicity result in the data set with cardiac contractility (at 150% increase in cardiac contractility) is given as “without any signs of toxicity”. In data set [1], the activation at 2 µM amounted to 63%, the activation at 6 µM turned out to be 143%, the activation at 10 µM came to 148% and the activation at 1 µM worked out at 43%. Also, the IC50 on membraneous ATPase was 0.18 nM.
Consider `C[C@H]1O[C@@H](O[C@H]2[C@@H](O)C[C@H](O[C@H]3[C@@H](O)C[C@H](O[C@H]4CC[C@@]5(C)[C@H](CC[C@@H]6[C@@H]5C[C@@H](O)[C@]5(C)[C@@H](C7=CC(=O)OC7)CC[C@]65O)C4)O[C@@H]3C)O[C@@H]2C)C[C@H](O)[C@@H]1O` [digoxin, reference compound], for which, in the data set on cardiac contractility (same experimental conditions), the “increase in cardiac contractility at which toxic signs appear” value is listed as “approximately 50%”. In data set [1], the activation at 2 µM worked out at 114%, the activation at 0.2 µM was determined as 38%, the activation at 6 µM is 128% and the activation at 10 µM was found to be 128%. Moreover, the activation at 1 µM in data set [1] was 100%. In addition, the IC50 at membraneous ATPase was 5.3 nM.
